Laboratory results as given in publication PMC7893915, “Assessing cross-resistance within the pyrethroids in terms of their interactions with key cytochrome P450 enzymes and resistance in vector populations” (Parasites & Vectors, 2021).
Read-outs that look alike come from different tables or passages of the source.

Legend:
[1] = tested on: An. funestus strain, FUMOZ-R; parameters: method as in PMID 26930058; conditions: strain with upregulated P450 levels without any target-site mutations; ref [47]; cited from earlier work
CYP6Z2 [2] = target: T1, CYP6Z2 (Anopheles gambiae, UniProt Q7PNB5); conditions: read-out: IC50 CYP6Z2; inhibition of diethoxyfluorescein metabolism; footnote a; ref Yunta et al. 2016[8]; cited from earlier work
T1 sequence (Q7PNB5 1-492): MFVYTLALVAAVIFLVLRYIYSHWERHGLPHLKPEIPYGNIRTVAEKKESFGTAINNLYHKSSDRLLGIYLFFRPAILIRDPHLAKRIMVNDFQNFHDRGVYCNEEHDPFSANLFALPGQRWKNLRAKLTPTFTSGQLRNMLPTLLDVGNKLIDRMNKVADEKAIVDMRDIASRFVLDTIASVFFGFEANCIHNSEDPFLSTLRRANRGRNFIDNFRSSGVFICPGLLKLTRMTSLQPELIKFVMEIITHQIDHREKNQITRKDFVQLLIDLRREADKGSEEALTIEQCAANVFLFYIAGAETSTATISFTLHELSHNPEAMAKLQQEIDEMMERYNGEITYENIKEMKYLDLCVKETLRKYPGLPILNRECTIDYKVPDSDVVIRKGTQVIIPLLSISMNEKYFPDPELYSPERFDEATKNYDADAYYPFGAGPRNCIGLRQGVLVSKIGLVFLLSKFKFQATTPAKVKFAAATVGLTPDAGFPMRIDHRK
T1 sequence (Q86QH5 1-679 partner): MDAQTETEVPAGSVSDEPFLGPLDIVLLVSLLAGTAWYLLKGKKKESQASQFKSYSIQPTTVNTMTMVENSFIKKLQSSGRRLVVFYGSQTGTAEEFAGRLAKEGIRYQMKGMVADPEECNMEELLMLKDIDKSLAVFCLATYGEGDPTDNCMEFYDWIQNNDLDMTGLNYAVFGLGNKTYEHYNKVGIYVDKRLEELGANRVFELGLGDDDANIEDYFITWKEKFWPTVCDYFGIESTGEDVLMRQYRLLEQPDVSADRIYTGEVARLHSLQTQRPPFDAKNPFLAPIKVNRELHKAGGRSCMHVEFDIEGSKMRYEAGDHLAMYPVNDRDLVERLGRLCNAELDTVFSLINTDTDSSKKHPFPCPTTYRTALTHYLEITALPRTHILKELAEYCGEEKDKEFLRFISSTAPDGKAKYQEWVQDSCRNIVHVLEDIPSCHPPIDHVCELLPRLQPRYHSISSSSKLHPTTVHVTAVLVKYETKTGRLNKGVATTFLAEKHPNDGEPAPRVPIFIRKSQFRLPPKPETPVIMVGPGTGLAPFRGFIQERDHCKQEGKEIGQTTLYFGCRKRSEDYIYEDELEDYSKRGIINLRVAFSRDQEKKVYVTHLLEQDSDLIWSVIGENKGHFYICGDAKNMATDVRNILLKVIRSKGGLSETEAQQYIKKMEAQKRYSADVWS

CYP6M2 = conditions: read-out: IC50 CYP6M2, inhibition of diethoxyfluorescein metabolism, cited from earlier work
CYP6Z2 [3] = target: T1, CYP6Z2; assay: Inhibition screening of pyrethroids, diethoxyfluorescein, CYP6Z2; format: biochemical
CYP6P9a = conditions: two earlier studies; ref [28]; cited from earlier work
CYP6M7 = conditions: two earlier studies; ref [28]; cited from earlier work
CYP6P9b = conditions: two earlier studies; ref [28]; cited from earlier work
[4] = footnote a, ref Yunta et al. 2016[8]
[5] = footnote b, ref Yunta et al. 2019[10]

| Structure (SMILES) | effectiveness with or without piperonyl butoxide (PBO), in words [1] | IC50 (CYP6Z2 [2]) | IC50 (CYP6M2; [4]) | IC50 (CYP6Z2 [3]) | IC50 (CYP6M2; [5]) | depletion (metabolised) by CYP6P9a (CYP6P9a) | depletion (metabolised) by CYP6M7 (CYP6M7) | depletion (metabolised) by CYP6P9b (CYP6P9b) |
| --- | --- | --- | --- | --- | --- | --- | --- | --- |
| CC1(C)[C@H](C(=O)O[C@H](C#N)c2cccc(Oc3ccccc3)c2)[C@@H]1C=C(Br)Br [Deltamethrin, deltamethrin] | only effective when partnered with PBO | 13.9 µM | 4.2 µM |  |  |  |  |  |
| CCOc1ccc(C(C)(C)COCc2cccc(Oc3ccccc3)c2)cc1 [Etofenprox, etofenprox] |  |  |  | 2.8 µM | 12 µM |  |  |  |
| CC1(C)C(C=C(Cl)Cl)C1C(=O)OCc1cccc(Oc2ccccc2)c1 (stereo not drawn) [Permethrin, permethrin] | only effective when partnered with PBO | 13.7 µM | 8.1 µM |  |  |  |  |  |
| CC1(C)[C@H](C(=O)O[C@H](C#N)c2cccc(Oc3ccccc3)c2)[C@@H]1/C=C(\Cl)C(F)(F)F (racemic) [λ-Cyhalothrin, λ-cyhalothrin] |  |  |  | 18.6 µM | 6.6 µM |  |  |  |
| Cc1c(COC(=O)[C@@H]2[C@H](/C=C(\Cl)C(F)(F)F)C2(C)C)cccc1-c1ccccc1 (racemic) [Bifenthrin, bifenthrin] |  |  |  | 20.7 µM | 5.6 µM | 68% | 62% | 71% |
